The target of assay [1] is T1, smooth muscle myosin S2 peptide (MYH11) (Homo sapiens, UniProt P35749).
T1 construct: A 21 residue peptide of the S2 region of MYH11 was matched to the previously synthesized S2 peptide; host or cells: chemical synthesis
The experiment in a line: FRET of smooth muscle myosin S2 peptide dimer with anti-S2 peptides. Format: binding. As to conditions: Smooth peptide with Stabilizer. From the text:
Human smooth muscle myosin heavy chain (MYH11) is a part of the non-striated muscle. This gene can be found within esophagus, endometrium, duodenum, etc. A 21 residue peptide of the S2 region of MYH11 was matched to the previously synthesized S2 peptide of cardiac isoform and chemically synthesized 926-946. Generated amino acid sequence used is as follow: • Smooth: NH2-[…]—COOH (SEQ ID NO:11)
(§1) Resonance energy probes (donor and acceptor) were covalently attached to synthetic myosin S2 peptides of cardiac muscle, E930del cardiac muscle, E924K cardiac muscle, smooth muscle, and skeletal muscle (Aboonasrshiraz, N., 2020).
Acceptor probe was conjugated to muscle myosin S2 peptides at N-terminus. Muscle myosin S2 peptides were dissolved in 20 mM HEPES buffer at pH 8.0. And FITC was dissolved in few drops of N, N dimethyl formamide. Lastly, FITC and muscle myosin S2 peptide was reacted together in 1 to 1 molar ratio and was let to react for 120 minutes at room temperature. […]
(§2) In FRET assay, Fluorescein Isothiocyanate (FITC) functioned as fluorescent acceptor probe and Terbium Diethylene Triamine Pentaacetic Acid-Cytosine (Lanthanide-DTPA-Cytosine) functioned as donor probe. […] Lifetime of donor probe was measured in milliseconds.
The specificity of peptides were later tested on the myosin S2 of the smooth muscle (MYH11). […] Calculated separation distance in presence of the stabilizer peptide was 3.34 nm.

Assay [2] addresses skeletal muscle myosin S2 peptide (MYH2) (Homo sapiens, UniProt Q9UKX2). The experiment in a line: FRET of skeletal muscle myosin S2 peptide dimer with anti-S2 peptides. Format: binding. More on the design: A 19 residue peptide of the S2 region of MYH2 was matched to the previously synthesized S2 peptide; host or cells: chemical synthesis. As to conditions: Skeletal peptide with Stabilizer.
Description: MYH2 gene codes for human skeletal muscle myosin expressed in fast type IIA muscle fibers. This myosin isoform can be found within extraocular muscle. A 19 residue peptide of the S2 region of MYH2 was matched to the previously synthesized S2 peptide of cardiac isoform and chemically synthesized […]. Generated amino acid sequence used is as follow: residues 925 to 945
as §1
Acceptor probe was conjugated to muscle myosin S2 peptides at N-terminus. Muscle myosin S2 peptides were dissolved in 20 mM HEPES buffer at pH 8.0. And FITC was dissolved in few drops of N, N dimethyl formamide. […]
as §2
Like cardiac muscle myosin S2^pep, dilution by decreasing the concentration of dimer skeletal muscle myosin S2^pep was performed and further was treated with different concentrations of anti-S2 peptides (FIG. 28A, 28B). […] Calculated separation distance in presence of the stabilizer peptide was 3.58 nm.

This note sets out measurements from patent US12617818B2, “Compositions and methods for modulating myosin subfragment-2 coiled coil stability and methods for using them” (UNIVERSITY OF NORTH TEXAS, priority 2020, dated 2026).

T1 sequence (P35749 926-946): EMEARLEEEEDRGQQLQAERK

As to `C[C@H](NC(=O)[C@H](CCCCN)NC(=O)[C@H](Cc1ccccc1)NC(=O)[C@H](CCCCN)NC(=O)[C@H](CCCCN)NC(=O)[C@H](CCCCN)NC(=O)[C@H](CCCCN)NC(=O)[C@H](CCCCN)NC(=O)[C@H](CCCCN)NC(=O)[C@H](CCCCN)NC(=O)[C@@H](N)CCCCN)C(=O)N[C@@H](CCCCN)C(=O)N[C@@H](CCCCN)C(=O)N[C@@H](CCCCN)C(=O)N[C@@H](CCCCN)C(=O)N[C@@H](CCCCN)C(=O)N[C@@H](CCCCN)C(=O)O` [Stabilizer], the “TD (donor lifetime without acceptor)” value in assay [1] and in assay [2] was 1.73E−03 each time.
